Source: patent US20200306333A1, “COMPOSITION FOR PREVENTING OR TREATING MUSCLE ATROPHY COMPRISING LYCII RADICIS CORTEX” (Industry-University Cooperation Foundation Hanyang …, priority 2019, published 2020)

Tests used:
Format in all cases: cell-based, mouse
Conditions in all cases: dexamethasone 1 μM
atrogin-1/MAFbx = assay: Western blotting of atrogin-1/MAFbx in C2C12 myotubes
Description: (§1) Dexamethasone induces muscle atrophy by inhibiting muscle synthesis and inducing protein degradation. The effect of preventing and improving muscle atrophy of the lycii radicis cortex extract was investigated by inducing muscle atrophy by treating the differentiation-induced C2C12 cells of Example 2-1 with dexamethasone and then treating the muscle atrophy-induced cells with the lycii radicis cortex extract. Detailed experimental conditions are as follows.
(§2) (1) Control: The differentiated C2C12 cells were treated only with DMEM/high glucose supplemented with 1% penicillin for 48 hours.
(§3) (2) Negative control: The C2C12 cells were treated with DMEM/high glucose supplemented with 1% penicillin and 1 μM dexamethasone for 48 hours.
(§4) (3) Control+lycii radicis cortex extract: The cells were treated with 30 μg/mL of the lycii radicis cortex extract for 48 hours under the same condition as the control of (1).
(§5) (4) Negative control+lycii radicis cortex extract: The cells were treated with 30 μg/mL of the lycii radicis cortex extract for 48 hours under the same condition as the negative control of (2). […]

MuRF-1 = assay: Western blotting of MuRF-1 in C2C12 myotubes
Description: as §1, §2, §3, §4, §5

C2C12 myotubes = assay: Diameter (thickness) of C2C12 myotubes, dexamethasone-induced muscle atrophy
Procedure: C2C12 mouse myoblasts acquired from the Korean Collection for Type Cultures of the Korea Research Institute of Bioscience and Biotechnology were induced to divide for a total of 6 times (3 times×2 days). After the division was completed sufficiently, the C2C12 cells were seeded onto a 12-well plate and then divided for 2 days. As a division medium, HyClone™ DMEM/high glucose supplemented with 10% FBS (fetal bovine serum) and 1% penicillin was used.
When each well of the 12-well plate reached 90% confluency, the cells were treated with a differentiation medium (HyClone™ DMEM/high glucose supplemented with 2% HS (horse serum) and 1% penicillin). The differentiation medium was replaced every 2 days, and the treatment was performed for 6 days. Then, the differentiation-induced C2C12 myotubes were treated with HyClone™ supplemented with 1% penicillin for 24 hours and then subjected to the following experiment.
Dexamethasone induces muscle atrophy by inhibiting muscle synthesis and inducing protein degradation. […]
After treating the control groups and test groups for 48 hours in Example 2-2, the cells were imaged using the automated cell imaging system JuLi™ Stage and the thickness of the imaged cells was measured using the cell processing program Image J, with 50 cells per group.

## C[C@@H]1C[C@H]2[C@@H]3CCC4=CC(=O)C=C[C@]4(C)[C@@]3(F)[C@@H](O)C[C@]2(C)[C@@]1(O)C(=O)CO [dexamethasone]
atrogin-1/MAFbx
  increase of activity of atrogin-1/MAFbx as compared to the control group: 3.404 fold
atrogin-1/MAFbx; 48 hours, Control = 100
  Atrogin-1/MAFbx vs. GAPDH: 340.3945
MuRF-1
  increase of activity of MuRF-1 as compared to the control group: 3.513 fold
MuRF-1; 48 hours, Control = 100
  MuRF-1 vs. GAPDH: 351.2904
C2C12 myotubes; 48 hours, C2C12 myotubes
  Average thickness (μm) of 50 cells: 7.5933 μm
C2C12 myotubes; p<0.005
  decrease in thickness as compared to the control group: 30.54%
